Values quoted from earlier work in patent publication US8753875B2, “Compositions and means for diagnosing microbial infections” (priority 2007, dated 2014).
Read-outs that look alike come from different tables or passages of the source.

System: E. coli
Conditions: cited from earlier work

| SMILES | Antimicrobial resistance of E. coli (resistance in percent) (Austria, n 126) [%] | Antimicrobial resistance of E. coli (resistance in percent) (Belgium, n 137) [%] | Antimicrobial resistance of E. coli (resistance in percent) (Canada, n 166) [%] | Antimicrobial resistance of E. coli (resistance in percent) (Denmark, n 85) [%] | Antimicrobial resistance of E. coli (resistance in percent) (Finland, n 182) [%] | Antimicrobial resistance of E. coli (resistance in percent) (France, n 199) [%] | Antimicrobial resistance of E. coli (resistance in percent) (Germany, n 138) [%] | Antimicrobial resistance of E. coli (resistance in percent) (Greece, n 132) [%] | Antimicrobial resistance of E. coli (resistance in percent) (Ireland, n 154) [%] | Antimicrobial resistance of E. coli (resistance in percent) (Luxembourg, n 24) [%] | Antimicrobial resistance of E. coli (resistance in percent) (Norway, n 168) [%] | Antimicrobial resistance of E. coli (resistance in percent) (Portugal, n 86) [%] | Antimicrobial resistance of E. coli (resistance in percent) (Spain, n 191) [%] | Antimicrobial resistance of E. coli (resistance in percent) (Sweden, n 193) [%] | Antimicrobial resistance of E. coli (resistance in percent) (Switzerland, n 122) [%] | Antimicrobial resistance of E. coli (resistance in percent) (The Netherlands, n 195) [%] | Antimicrobial resistance of E. coli (resistance in percent) (Total, n 2478) [%] | Antimicrobial resistance of E. coli (resistance in percent) (United Kingdom, n 180) [%] |
| --- | --- | --- | --- | --- | --- | --- | --- | --- | --- | --- | --- | --- | --- | --- | --- | --- | --- | --- |
| CC1=C(C(=O)O)N2C(=O)C(NC(=O)C(N)c3ccc(O)cc3)C2SC1 (stereo not drawn) [CFR, 8-[2-amino-2-(4-hydroxyphenyl)-acetyl]amino-4-methyl-7-oxo-2-thia-6-azabicyclo [4.2.0] oct-4-ene-5-carboxylic acid] | 0.8 | 0.7 | 1.8 | 1.2 | 1.6 | 1.0 | 1.4 | 3.0 | 0.6 | 0 | 2.4 | 2.3 | 3.1 | 5.2 | 0.8 | 4.6 | 2.1 | 1.7 |
| C[C@@H]1O[C@@H]1P(=O)(O)O [FOF, [(2R,3S)-3-methyloxiran-2-yl]phosphonic acid] | 0 | 0.7 | 0.6 | 1.2 | 1.1 | 1.0 | 0 | 1.5 | 1.3 | 0 | 1.2 | 0 | 0.5 | 0.5 | 0.8 | 0.5 | 0.7 | 0 |
| CNC(C)C1CCC(N)C(OC2C(N)CC(N)C(OC3OCC(C)(O)C(NC)C3O)C2O)O1 (stereo not drawn) [GEN, 2-[4,6-diamino-3-[3-amino-6-(1-methylaminoethyl)tetrahydropyran-2-yl]oxy-2-hydroxy-cyclohexoxy]-5-methyl-4-methylamino-tetrahydropyran-3,5-diol] | 0.8 | 0.7 | 0.6 | 0 | 0.5 | 0 | 0.7 | 0.8 | 0.6 | 0 | 0 | 3.5 | 4.7 | 0 | 3.3 | 0.5 | 1.0 | 0 |
| CCn1cc(C(=O)O)c(=O)c2ccc(C)nc21 [NAL, 1-ethyl-7-methyl-4-oxo-[1,8]naphthyridine-3-carboxylic acid] | 2.4 | 6.6 | 0.6 | 3.5 | 1.6 | 3.5 | 3.6 | 6.8 | 1.9 | 8.3 | 1.2 | 11.6 | 26.7 | 2.6 | 6.6 | 5.1 | 5.4 | 2.2 |
| Cc1cc(NS(=O)(=O)c2ccc(N)cc2)no1 [SUL, 4-amino-N-(5-methylisoxazol-3-yl)-benzenesulfonamide] | 25.4 | 32.8 | 25.3 | 21.2 | 15.4 | 31.7 | 34.8 | 19.7 | 40.3 | 25.0 | 25.0 | 44.2 | 48.7 | 16.6 | 31.1 | 25.6 | 29.1 | 31.7 |
